Measurements reported in ChEMBL document CHEMBL1201862, “PubChem BioAssay data set” (2004).
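Step 1: Grow cells in 96-well plates. Step 2: Expose to compound for 48 hours at 5 concentrations. Step 3: Interpolate endpoints linearly; if unreached, use highest concentration. GI50: concentration for 50% inhibition of growth.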 Active and inactive are the calls of the source. Cut-off read from the data, not from the text of the source: active = GI50 up to about 1.1 µM and inactive = higher.

Key:
Assay in all cases: inhibition of tumour cell growth, NCI panel, 48 h
[1] = tested on: ACHN
[2] = tested on: CCRF-CEM
[3] = tested on: OVCAR-3
[4] = tested on: NCI-H460
[5] = tested on: OVCAR-8
[6] = tested on: MOLT-4
[7] = tested on: KM12
[8] = tested on: U-251
[9] = tested on: LOX IMVI
[10] = tested on: IGROV-1
[11] = tested on: HOP-92
[12] = tested on: NCI-H226
[13] = tested on: COLO 205
[14] = tested on: SK-MEL-5
[15] = tested on: OVCAR-5
[16] = tested on: A549

Measured: GI50

O=c1[nH]c(=O)n(C2CC(O)C(CO)O2)cc1C(F)(C(F)(F)F)C(F)(F)F (stereo not drawn)
inactive: [1] > 100 µM | [2] > 100 µM | [3] > 100 µM | [4] > 100 µM | [5] > 100 µM | [6] > 100 µM | [7] > 100 µM | [8] > 100 µM | [9] > 100 µM | [10] > 100 µM | [11] > 100 µM | [12] > 100 µM | [13] 71 µM | [14] > 100 µM | [15] > 100 µM

COc1nc(NC2OC(COC(C)=O)C(OC(C)=O)C(OC(C)=O)C2OC(C)=O)c2c(OC(C)=O)c(C)c(=O)oc2n1 (stereo not drawn)
inactive: [1] 1.7 µM | [2] > 100 µM | [3] > 100 µM | [4] 1.67 µM | [16] > 100 µM | [5] > 100 µM | [6] > 100 µM | [7] > 100 µM | [8] > 100 µM | [9] > 100 µM | [10] > 100 µM | [11] > 100 µM | [12] > 100 µM | [13] > 100 µM | [14] > 100 µM | [15] > 100 µM

CCOC(=O)c1sc2c(C(=O)OCC)n3cc(C)cc(C)c3c2c1O
inactive: [1] > 100 µM | [2] > 100 µM | [3] 63.2 µM | [4] > 100 µM | [16] > 100 µM | [5] > 100 µM | [6] > 100 µM | [7] > 100 µM | [8] > 100 µM | [9] > 100 µM | [10] > 100 µM | [11] 76.4 µM | [12] > 100 µM | [13] > 100 µM | [14] > 100 µM | [15] > 100 µM

NC(=O)NNC(=O)NC12CC3CC(CC(C3)C1)C2
inactive: [1] > 100 µM | [2] > 100 µM | [3] > 100 µM | [4] > 100 µM | [16] > 100 µM | [5] > 100 µM | [6] > 100 µM | [7] > 100 µM | [8] > 100 µM | [9] > 100 µM | [10] > 100 µM | [11] > 100 µM | [12] > 100 µM | [13] > 100 µM | [14] > 100 µM | [15] > 100 µM

CCCNC(=S)NNC(=O)CSc1nc(-c2ccccc2)c(-c2ccccc2)[nH]1
inactive: [1] 46.7 µM | [2] 38.1 µM | [3] 28 µM | [4] 39.9 µM | [16] 75.5 µM | [5] 73.1 µM | [6] 24.2 µM | [7] 33 µM | [8] 56.1 µM | [9] 48.2 µM | [10] 65 µM | [11] 23.5 µM | [12] 91.6 µM | [13] 39 µM | [14] 25.9 µM | [15] > 100 µM

CC/C(=N\NS(=O)(=O)c1ccccc1)c1ccccc1
inactive: [1] > 100 µM | [2] > 100 µM | [3] > 100 µM | [4] > 100 µM | [16] > 100 µM | [5] > 100 µM | [6] > 100 µM | [7] > 100 µM | [8] > 100 µM | [9] > 100 µM | [10] > 100 µM | [11] > 100 µM | [12] > 100 µM | [13] > 100 µM | [14] > 100 µM | [15] > 100 µM

COc1cc2c(oc(=O)c3c4oc([Si](C)(C)C)cc4cc(OC)c23)c2cccc(O)c12
inactive: [1] > 100 µM | [2] > 100 µM | [3] > 100 µM | [4] > 100 µM | [16] > 100 µM | [5] > 100 µM | [6] > 100 µM | [7] > 100 µM | [8] > 100 µM | [9] > 100 µM | [10] > 100 µM | [11] > 100 µM | [12] > 100 µM | [13] > 100 µM | [14] > 100 µM | [15] > 100 µM

COc1cc2[nH]c3c(c2cc1OC)CCN[C@]31CC[C@]2(CC3c4c(cc(OC)c(O)c42)CCN3C)C[C@H]1OC (stereo partly drawn)
inactive: [1] 24.8 µM | [2] 10.8 µM | [3] 21.2 µM | [4] 23.8 µM | [16] 25.1 µM | [5] 19.6 µM | [6] 12.9 µM | [7] 17.7 µM | [8] 18 µM | [9] 24.3 µM | [10] 22.5 µM | [11] 25.8 µM | [12] 45.5 µM | [13] 13.7 µM | [14] 15 µM | [15] 69.3 µM

O=C1Cc2c([nH]c3ccccc23)-c2cc(Br)ccc2N1
inactive: [1] > 100 µM | [2] > 100 µM | [3] > 100 µM | [4] > 100 µM | [16] > 100 µM | [5] > 100 µM | [6] > 100 µM | [7] > 100 µM | [8] > 100 µM | [9] > 100 µM | [10] > 100 µM | [11] > 100 µM | [12] > 100 µM | [13] > 100 µM | [14] > 100 µM | [15] > 100 µM
